The source of these data is patent publication US6436915B1, “Pyrazole compounds” (Kinetek Pharmaceuticals, Inc., priority 2000, dated 2002).

Where only a bound is given, the exact number is not on record here.

The target of one experiment is T1, integrin linked kinase (Homo sapiens, UniProt Q13418).
T1 construct: The target integrin linked kinase is a full-length recombinant protein expressed in sF9 insect cells by baculovirus infection; GST (N); made in house; host or cells: Baculovirus; virus made in Sf9 cells, litre-scale expression in Hi5 insect cells
T1 sequence (Q13418 1-452): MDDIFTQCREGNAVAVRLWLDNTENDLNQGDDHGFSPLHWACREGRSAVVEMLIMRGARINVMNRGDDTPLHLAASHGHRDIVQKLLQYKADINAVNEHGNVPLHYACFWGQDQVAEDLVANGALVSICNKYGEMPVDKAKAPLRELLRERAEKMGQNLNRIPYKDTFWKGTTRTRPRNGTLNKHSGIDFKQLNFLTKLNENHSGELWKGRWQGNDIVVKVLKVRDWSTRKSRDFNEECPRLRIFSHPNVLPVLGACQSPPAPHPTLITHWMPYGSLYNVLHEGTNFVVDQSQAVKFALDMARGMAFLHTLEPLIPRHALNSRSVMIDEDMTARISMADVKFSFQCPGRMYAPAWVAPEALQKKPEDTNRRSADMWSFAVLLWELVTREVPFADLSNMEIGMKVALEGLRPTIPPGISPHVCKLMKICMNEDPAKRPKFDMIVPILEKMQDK
In words: In vitro kinase inhibition assay, integrin linked kinase (radioactive phosphate incorporation, scintillation counting). Format: biochemical. The following applies: full-length recombinant ILK expressed in insect cells; substrate CKRRRLASLR-amide; 15 min at room temperature. As for the experimental part: Compounds were screened using a series of disease related kinase targets, such as integrin linked kinase-1. Synthesized libraries of compounds are tested against each of the targets to find compounds that inhibit one of the targets preferentially. The desired in vitro potency of the inhibitor is such that the compound is useful as a therapeutic agent, i.e. in the nanomolar or micromolar range.
Inhibition of the targets is measured by scintillation counting; the incorporation of radioactive phosphate onto a specific substrate which is immobilized onto a filter paper at the end of the assay. To provide meaningful measurements of inhibition, the assays are performed both in the absence and presence of specific and known inhibitors, and the amount of incorporated radioactivity is compared to provide a baseline measurement.
The baseline activity is the amount of radioactivity incorporated in the absence of inhibitor. The amount of radioactivity incorporated in the presence of an inhibitor is called the ‘sample activity’, and the % inhibition is expressed by the following formula:
% inhibition=100−sample activity/baseline activity*100)
and is usually expressed in conjunction with the compound concentration. By using a range of inhibitor concentrations, the IC50 of an inhibitor is estimated (i.e. the concentration at which enzymatic activity is reduced by 50%).
Inhibition Assay: Compounds listed in Table 1 were lyophilized and stored at −20° C. Stock solutions were made by weighing out the compounds and dissolving them in dimethyl sulfoxide (DMSO) to a standard concentration, usually 20 mM, and stored at −20° C. The compounds were diluted to a starting intermediate concentration of 250 μM in 1% DMSO, then serially diluted across a row of a 96 well plate using serial 2 fold dilution steps. Diluted 100% DMSO was used as a negative control. 5 μl of each compound dilution were robotically pipetted to Costar serocluster plates maintaining the same plate format. All assays consisted of the following volumes:
and were then incubated 15 min at room temperature.
From each reaction, 10 μl of reaction mix was spotted onto Millipore Multiscreen-PH opaque plates and washed 2×10 min in 1% phosphoric acid. The plates were dried for at 40° C. for 30 min, then the substrate phosphate complexes were quantitated by scintillation counting. These Millipore plates are in a 96 well format with immobilized P81 phosphocellulose membranes. Both the phosphorylated and non-phosphorylated form of the substrate bind to the membrane while ATP (unincorporated phosphate) is removed in the subsequent wash steps.
Integrin Linked Kinase: The target integrin linked kinase is a full-length recombinant protein expressed in sF9 insect cells by baculovirus infection. The ILK1 substrate is CKRRRLASLR-amide.
Recombinant ILK protein was expressed using cultured insect cells and a baculovirus expression system. Standard techniques for DNA manipulation were used to produce recombinant DNA molecules and baculoviruses (Sambrook. J., Fritsch, E. F. and Maniatis, T. 1989. Molecular cloning, a laboratory manual. Second edition. Cold Spring Harbor Laboratory Press. NY; Crossen, R. and Gruenwald, S. 1998. Baculovirus expression Vector System Manual. 5th Edition. Pharmingen, San Diego, Calif.) but the isolation of active ILK required some ingenuity.
The ILK open reading frame (Hannigan et al., supra.), excluding the 5′ and 3′ untranslated regions, was inserted into the baculovirus transfer vector pAcG2T (Pharmingen) to produce a GST fusion protein under the control of the strong AcNPV polyhedrin promoter. A large scale plasmid preparation of the resulting transfer construct was made using a Qiagen Plasmid Midi Kit. This ILK transfer construct was then co-transfected with BaculoGold DNA (Pharmingen) into Sf9 insect cells (Invitrogen) and a high titre preparation of GST-ILK recombinant baculovirus was produced by amplification in Sf9 cells. […]
`CC(=O)Nc1ccc(NN=C2C(N)=NN=C2N)cc1` [KP-27392, 3,5-diamino-4-(p-acetoaminophenyl)hydrazonopyrazole]: the IC50 (in general, the concentration needed to halve the response being measured) worked out at 5 µM.

Regarding `NC1=NN=C(N)C1=NNc1nccs1` [KP-27293, 3,5-diamino-4-(2-thiazolyl)hydrazonopyrazole], the IC50 was found to be 0.9 µM.

For the molecule `N=C1NN=C(N)/C1=N/Nc1ccccc1` [KP-23194, 3,5-diamino-4-phenylhydrazonopyrazole], the half-inhibitory concentration (IC50) was 0.6 µM.

As for `NC1=NN=C(N)C1=NNc1ccc(C(=O)O)cc1` [KP-27388, 4-[N′-(3,5-diaminopyrazol-4-ylidene)hydrazino]benzoic acid], the IC50 was 13 µM.

`COc1ccc(NN=C2C(=O)NNC2=O)cc1O` [KP-23205, 4-(3-hydroxy-4-methyoxyphenyl)hydrazonopyrazolin-3,5-dione]: the IC50 is over 20 µM.

With `NC1=NN=C(N)C1=NNCC1CCNCC1` [KP-27386, 3,5-diamino-4-(4-piperidinylmethyl)hydrazonopyrazole], the half-maximal inhibitory concentration (IC50) came out at 13 µM.

With `NC1=NN=C(N)C1=NNc1ccc(S(=O)(=O)O)c2ccccc12` [KP-27295, 4-[N′-(3,5-Diaminopyrazol-4-ylidene)hydrazino]naphthalene-1-sulfonic acid], the IC50 was 19.3 µM.

Consider `COc1ccc(/N=N/C2C(=O)NN=C2N)cc1O` (stereo not shown) [KP-23201, 3-amino-4-(3-hydroxy-4-methyoxyphenylazo)-2-pyrazolin-5-one], for which the IC50 is 18 µM.

With `COc1ccc(NN=C2C(N)=NN=C2N)cc1O` [KP-23197, 3,5-diamino-4-(3-hydroxy-4-methoxyphenyl)hydrazonopyrazole], the 50% inhibitory concentration (IC50) stood at 4 µM.

Turning to `O=C1NNC(=O)C1=NNc1ccccc1` [KP-23202, 4-phenylhydrazonopyrazolin-3,5-dione], the IC50 is over 20 µM.

With `NC1=NN=C(N)C1=NNc1cc[nH]n1` [KP-27292, 3,5-diamino-4-(3-pyrazolyl)hydrazonopyrazole], the IC50 came out at 8 µM.

Turning to `NC1=NN=C(N)C1=NNc1cccc2ccccc12` [KP-27294, 3,5-diamino-4-(1-naphthyl)hydrazonopyrazole], the IC50 was 0.6 µM.

In the case of `NC1=NN=C(N)C1=NNc1nccnn1` [KP-27387, 3,5-diamino-4-(3-[1,2,4]triazinyl)hydrazonopyrazole], the IC50 was over 20 µM.

In the case of `NC1=NN=C(N)C1=NNN1CCOCC1` [KP-27289, 3,5-diamino-4-morpholinylhydrazonopyrazole], the IC50 turned out to be 9.6 µM.

`COc1ccc(N/N=C2/C(=N)NN=C2N)cc1` [KP-15792, 3,5-diamino-4-(p-methoxyphenyl)hydrazonopyrazole]: the IC50 was 1 µM.

Turning to `NC1=NN=C(N)C1=NNc1ccc(Cl)cc1` [KP-27390, 3,5-diamino-4-(p-chlorophenyl)hydrazonopyrazole], the IC50 was found to be 1.2 µM.

Take `NC1=NNC(=O)C1/N=N/c1ccccc1` (stereo not shown) [KP-23198, 3-amino-4-phenylazo-2-pyrazolin-5-one]: the 50% inhibitory concentration (IC50) came out at 17.1 µM.

Consider `COc1ccc(NN=C2C(=O)NNC2=O)cc1` [KP-23204, 4-(p-methoxyphenyl)hydrazonopyrazolin-3,5-dione], for which the concentration for half-maximal inhibition (IC50) was over 20 µM.

Take `NC1=NN=C(N)C1=NNc1ccc(S(=O)(=O)O)cc1` [KP-27288, 4-[N′-(3,5-diaminopyrazole-4-ylidene)hydrazino]benzenesulfonic acid]: the IC50 is over 20 µM.

With `Cc1ccc(NN=C2C(=O)NNC2=O)cc1` [KP-23203, 4-(p-methylphenyl)hydrazonopyrazolin-3,5-dione], the IC50 is over 20 µM.

Turning to `NC1=NN=C(N)C1=NNCCN1CCOCC1` [KP-27290, 3,5-diamino-4-(2-morpholinylethyl)hydrazonopyrazole], the IC50 came to 8.2 µM.

As to `COc1ccc(/N=N/C2C(=O)NN=C2N)cc1` (stereo not shown) [KP-23200, 3-amino-4-(p-methoxyphenylazo)-2-pyrazolin-5-one], the IC50 is over 20 µM.

`NC1=NN=C(N)C1=NNc1ccc(O)cc1` [KP-27389, 3,5-diamino-4-(p-hydroxyphenyl)hydrazonopyrazole]: the IC50 is over 20 µM.

`NC1=NN=C(N)C1=NNc1c(O)ccc2ccccc12` [KP-27393, 3,5-diamino-4-(2-hydroxynaphthyl)hydrazonopyrazole]: the IC50 turned out to be 3 µM.

Consider `Cc1ccc(NN=C2C(N)=NN=C2N)cc1` [KP-23195, 3,5-diamino-4-(p-methylphenyl)hydrazonopyrazole], for which the IC50 was 5.3 µM.

For `NC1=NN=C(N)C1=NNc1ncc[nH]1` [KP-27291, 3,5-diamino-4-(2-imidazolyl)hydrazonopyrazole], the concentration for half-maximal inhibition (IC50) was 28 µM.

`Cc1ccc(/N=N/C2C(=O)NN=C2N)cc1` (stereo not shown) [KP-23199, 3-amino-4-(p-methylphenylazo)-2-pyrazolin-5-one]: the half-inhibitory concentration (IC50) was over 20 µM.

Another experiment relates to Lewis Lung Carcinoma cells. Briefly: Anti-tumor activity in a murine model using Lewis Lung Carcinoma cells (FIG. 1). The class given is in vivo. The following applies: FIG. 1 legend only.
Consider `COc1ccc(N/N=C2/C(=N)NN=C2N)cc1` [KP-15792, 3,5-diamino-4-(p-methoxyphenyl)hydrazonopyrazole], for which the anti-tumor activity entry was “anti-tumor activity”.
